For assay [1], the target named is full-length human RORγt (Homo sapiens (Human), UniProt P51449). Kind of assay: RORγt (full-length human) reporter assay, conditions A or B, HEK293T cells. It counts as cell-based. The conditions noted are these: for inhibition at 6 µM: read-out: RORγt (FL) Reporter Assay A or B, % inhibition @ 6 μM; for inhibition at 3 µM: 3 μM compound concentration (footnote *). The method, boiled down:
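Dual-luciferase read-out was taken after an overnight (16–20 h) compound exposure. Firefly data were scaled between DMSO-only and saturating reference compound, Renilla-normalized, then plotted against concentration for IC50.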

In assay [2] the target is human RORγt ligand binding domain (RORγt LBD) (Homo sapiens (Human), UniProt P51449). As to the kind of experiment: RORγt ThermoFluor® assay (thermal shift binding). A digest of the protocol:
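Thermal shift with 0.065 mg/mL RORγt LBD and 60 μM 1,8-ANS in 100 mM Hepes pH 7.0, 10 mM NaCl, 2.5 mM GSH, 0.002% Tween-20.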
On the technique in general: Differential scanning fluorimetry follows unfolding on heating by fluorescence.

[3] abbreviates: HEK-293T, 6 μM compound concentration.
The mark [4] stands for this setting: RORγt (FL) Reporter Assay A or B, IC50, HEK293T cells.
[5] abbreviates: read-out: ThermoFluor® Assay, Kd.
[6] abbreviates: HEK-293T, 0.67 μM compound concentration (footnote ****), read-out: RORγt (FL) Reporter Assay A or B, % inhibition.
Setting [7] is: HEK-293T, read-out: RORγt (FL) Reporter Assay A or B, % inhibition.
Where [8] appears, read: HEK-293T, 0.22 μM compound concentration (footnote *******), read-out: RORγt (FL) Reporter Assay A or B, % inhibition.

Each structure is given as a SMILES string. Where two headings read alike, the source gives them in different places.

Sequence of full-length human RORγt (P51449 other isoform, or with tags, fused parts or gaps): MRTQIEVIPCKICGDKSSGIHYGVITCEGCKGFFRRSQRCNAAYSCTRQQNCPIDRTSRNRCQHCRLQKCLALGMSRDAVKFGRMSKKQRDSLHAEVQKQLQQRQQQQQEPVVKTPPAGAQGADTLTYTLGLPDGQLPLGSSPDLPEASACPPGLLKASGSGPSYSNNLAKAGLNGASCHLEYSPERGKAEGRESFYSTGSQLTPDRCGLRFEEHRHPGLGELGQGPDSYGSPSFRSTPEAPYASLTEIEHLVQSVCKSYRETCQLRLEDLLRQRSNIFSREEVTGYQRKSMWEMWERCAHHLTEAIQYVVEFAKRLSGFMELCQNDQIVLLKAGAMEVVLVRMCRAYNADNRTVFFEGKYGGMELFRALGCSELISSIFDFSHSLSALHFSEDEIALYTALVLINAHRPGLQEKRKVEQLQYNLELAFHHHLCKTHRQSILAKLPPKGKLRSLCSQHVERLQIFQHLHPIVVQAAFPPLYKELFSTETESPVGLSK
Sequence of human RORγt ligand binding domain (RORγt LBD) (P51449 other isoform, or with tags, fused parts or gaps): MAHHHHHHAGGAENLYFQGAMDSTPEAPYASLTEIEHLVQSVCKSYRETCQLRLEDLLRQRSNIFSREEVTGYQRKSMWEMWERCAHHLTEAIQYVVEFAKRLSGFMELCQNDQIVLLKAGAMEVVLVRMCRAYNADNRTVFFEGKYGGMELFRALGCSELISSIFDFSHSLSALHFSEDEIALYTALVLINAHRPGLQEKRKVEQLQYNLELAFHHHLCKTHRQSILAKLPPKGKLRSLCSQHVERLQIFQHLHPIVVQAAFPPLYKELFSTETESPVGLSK

Take `COCCn1nc(C(=O)NC[C@]2(O)CC[C@@H](S(C)(=O)=O)CC2)c(Cl)c1-c1ccc(CC(C)(C)C(F)(F)F)cc1OC` [Example 186, 4-Chloro-N-(((1s,4s)-1-hydroxy-4-(methylsulfonyl)cyclohexyl)methyl)-5-(2-methoxy-4-(3,3,3-trifluoro-2,2-dimethylpropyl)phenyl)-1-(2-methoxyethyl)-1H-pyrazole-3-carboxamide]: the inhibition at 6 µM in assay [1] (setting [3]) came out at 96%. This compound also had an IC50 in assay [1] (setting [4]) of 34 nM. Also, the Kd in assay [2] (setting [5]) was 7.7 nM.

As for `CCn1nc(C(=O)NC[C@H]2CC[C@H](S(C)(=O)=O)CC2)c(C)c1-c1ccc(CCC(F)(F)F)cc1OC(F)F` [Example 224, 5-(2-(Difluoromethoxy)-4-(3,3,3-trifluoropropyl)phenyl)-1-ethyl-4-methyl-N-(((1r,4r)-4-(methylsulfonyl)cyclohexyl)methyl)-1H-pyrazole-3-carboxamide], in assay [1] (HEK-293T, 0.11 μM compound concentration (footnote ********), read-out: RORγt (FL) Reporter Assay A or B, % inhibition), the inhibition at […] is 95%. The same compound showed an IC50 in assay [1] (setting [4]) of 0.44 nM. The Kd in assay [2] (setting [5]) came out at 2.4 nM.

With `CCn1nc(C(=O)NC[C@H]2CC[C@H](S(C)(=O)=O)CC2)c(C)c1-c1ccc(CCCC(F)(F)F)cc1OC` [Example 82, 1-Ethyl-5-(2-methoxy-4-(4,4,4-trifluorobutyl)phenyl)-4-methyl-N-(((1r,4r)-4-(methylsulfonyl)cyclohexyl)methyl)-1H-pyrazole-3-carboxamide], the inhibition at 0.67 µM in assay [1] (setting [6]) came to 87%. Further, in assay [1] (setting [4]), the IC50 was 14 nM. For the same compound, the Kd in assay [2] (setting [5]) is 4.1 nM.

As for `CCn1nc(C(=O)NC[C@H]2CC[C@H](S(=O)(=O)NC)CC2)c(Cl)c1-c1ccc(CC(C)(C)C(F)(F)F)cc1OC(F)F` [Example 50, 4-Chloro-5-(2-(difluoromethoxy)-4-(3,3,3-trifluoro-2,2-dimethylpropyl)phenyl)-1-ethyl-N-(((1r,4r)-4-(N-methylsulfamoyl)cyclohexyl)methyl)-1H-pyrazole-3-carboxamide], the IC50 in assay [1] (HEK293T cells, read-out: RORγt (FL) Reporter Assay A or B, IC50) is 3 nM. In addition, the Kd in assay [2] (setting [5]) worked out at 0.1 nM.

For `CCn1nc(C(=O)NC[C@H]2CC[C@H](S(C)(=O)=O)CC2)c(Cl)c1-c1ccc(OC2CCC(F)(F)CC2)cc1OC` [Example 219, 4-Chloro-5-(4-((4,4-difluorocyclohexyl)oxy)-2-methoxyphenyl)-1-ethyl-N-(((1r,4r)-4-(methylsulfonyl)cyclohexyl)methyl)-1H-pyrazole-3-carboxamide], in assay [1] (setting [7]), the inhibition at 0.67 µM was 98%. Further, 30 nM corresponded to half-maximal inhibition in assay [1] (setting [4]) (IC50). Also, the Kd in assay [2] (setting [5]) stood at 9.9 nM.

On to `CCn1nc(C(=O)NC[C@]2(O)CC[C@@H](S(C)(=O)=O)CC2)c(Cl)c1-c1ccc(C(O)CCC(F)(F)F)cc1OC(F)F` (some centres unmarked) [Example 98, 4-Chloro-5-(2-(difluoromethoxy)-4-(4,4,4-trifluoro-1-hydroxybutyl)phenyl)-1-ethyl-N-(((1s,4s)-1-hydroxy-4-(methylsulfonyl)cyclohexyl)methyl)-1H-pyrazole-3-carboxamide], for which, in assay [1] (setting [7]), the inhibition at 3 µM came out at 89%. In assay [1] (setting [4]), this compound had an IC50 of 71 nM. Further, the dissociation constant Kd in assay [2] (setting [5]) stood at 310 nM.

On to `CCn1nc(C(=O)NC[C@]2(O)CC[C@@H](S(C)(=O)=O)CC2)c(Cl)c1-c1ccc(N[C@H](C)C(F)(F)F)cc1` [Example 195, 4-Chloro-1-ethyl-N-(((1s,4S)-1-hydroxy-4-(methylsulfonyl)cyclohexyl)methyl)-5-(4-(((R)-1,1,1-trifluoropropan-2-yl)amino)phenyl)-1H-pyrazole-3-carboxamide], for which the inhibition at 6 µM in assay [1] (HEK-293T) worked out at 96%. Also, the IC50 in assay [1] (setting [4]) worked out at 300 nM. The equilibrium dissociation constant (Kd) in assay [2] (setting [5]) was 52 nM.

`CCn1nc(C(=O)NC[C@H]2CC[C@H](S(C)(=O)=O)CC2)c(Cl)c1-c1ccc(C(O)(C(F)(F)F)C(F)(F)F)cc1OC(F)F` [Example 116, 4-Chloro-5-(2-(difluoromethoxy)-4-(1,1,1,3,3,3-hexafluoro-2-hydroxypropan-2-yl)phenyl)-1-ethyl-N-(((1r,4r)-4-(methylsulfonyl)cyclohexyl)methyl)-1H-pyrazole-3-carboxamide]: the inhibition at 3 µM in assay [1] (setting [7]) was found to be 106%. The IC50 in assay [1] (setting [4]) stood at 3.4 nM. Further, the Kd in assay [2] (setting [5]) came out at 0.15 nM.

On to `CCn1nc(C(=O)NC[C@]2(C(=O)O)CC[C@H](S(C)(=O)=O)CC2)c(Cl)c1-c1ccc(N[C@H](C)C(F)(F)F)cc1OC` (relative stereo) [Example 96, (1r*,4R*)-1-((4-Chloro-1-ethyl-5-(2-methoxy-4-(((R)-1,1,1-trifluoropropan-2-yl)amino)phenyl)-1H-pyrazole-3-carboxamido)methyl)-4-(methylsulfonyl)cyclohexane-1-carboxylic Acid], for which the inhibition at 6 µM in assay [1] (setting [3]) is -10%. In assay [1] (setting [4]), the concentration for half-maximal inhibition (IC50) is over 6000 nM. Besides, in assay [2] (ThermoFluor® Assay, Kd), the Kd was 25000 nM.

Turning to `CCn1nc(C(=O)NC[C@H]2CC[C@H](S(C)(=O)=O)CC2)c(Cl)c1-c1ccc(C[C@@H](C)C(F)(F)F)cc1OC` (single isomer, unassigned) [Example 1, 4-Chloro-1-ethyl-5-(2-methoxy-4-((R*)-3,3,3-trifluoro-2-methylpropyl)phenyl)-N-(((1r,4R)-4-(methylsulfonyl)cyclohexyl)methyl)-1H-pyrazole-3-carboxamide], in assay [1] (setting [6]), the inhibition at 0.67 µM stood at 99%. Further, in assay [1] (setting [4]), half-maximal inhibition (IC50) was put at 6 nM. In addition, in assay [2] (ThermoFluor® Assay, Kd), the Kd is 0.6 nM.

Take `Cn1nc(C(=O)NC[C@@]2(O)CC[C@H](S(C)(=O)=O)C[C@@H]2O)c(Cl)c1-c1ccc(CC(C)(C)C(F)(F)F)cc1OC(F)F` (relative stereo) [Example 153, 4-Chloro-5-(2-(difluoromethoxy)-4-(3,3,3-trifluoro-2,2-dimethylpropyl)phenyl)-N-(((1S*,2S*,4S*)-1,2-dihydroxy-4-(methylsulfonyl)cyclohexyl)methyl)-1-methyl-1H-pyrazole-3-carboxamide]: the inhibition at 3 µM in assay [1] (setting [7]) stood at 85%. The same compound had a 50% inhibitory concentration (IC50) in assay [1] (setting [4]) of 49 nM. Also, the Kd in assay [2] (ThermoFluor® Assay, Kd) is 9 nM.

In the case of `CCn1nc(C(=O)NC[C@H]2CC[C@H](S(C)(=O)=O)CC2)c(Cl)c1-c1ccc(C[C@@H](C)C(F)(F)F)cc1OC(F)F` (single isomer, unassigned) [Example 135, 4-Chloro-5-(2-(difluoromethoxy)-4-((R*)-3,3,3-trifluoro-2-methylpropyl)phenyl)-1-ethyl-N-(((1r,4R)-4-(methylsulfonyl)cyclohexyl)methyl)-1H-pyrazole-3-carboxamide], the inhibition at […] in assay [1] (HEK-293T, 0.33 μM compound concentration (footnote *****), read-out: RORγt (FL) Reporter Assay A or B, % inhibition) came to 83%. Besides, half-maximal inhibition in assay [1] (setting [4]) (IC50) was put at 11 nM. Further, the Kd in assay [2] (ThermoFluor® Assay, Kd) came to 0.46 nM.

On to `CCn1nc(C(=O)NCC2(N)CCC(S(C)(=O)=O)CC2)c(Cl)c1-c1ccc(CC(C)C(F)(F)F)cc1OC` (centres unmarked) [Example 128, N-((1-Amino-4-(methylsulfonyl)cyclohexyl)methyl)-4-chloro-1-ethyl-5-(2-methoxy-4-(3,3,3-trifluoro-2-methylpropyl)phenyl)-1H-pyrazole-3-carboxamide], for which the inhibition at 2 µM in assay [1] (HEK-293T, 2 μM compound concentration, read-out: RORγt (FL) Reporter Assay A or B, % inhibition) is 63%. In addition, inhibition in assay [1] (setting [4]) was half-maximal at 850 nM (IC50). For the same compound, the Kd in assay [2] (setting [5]) was determined as 140 nM.

Take `CCn1nc(C(=O)NC[C@]2(C#N)CC[C@@H](S(C)(=O)=O)CC2)c(Cl)c1-c1ccc(CC(C)(C)C(F)(F)F)cc1OC(F)F` [Example 134, 4-Chloro-N-(((1s*,4s*)-1-cyano-4-(methylsulfonyl)cyclohexyl)methyl)-5-(2-(difluoromethoxy)-4-(3,3,3-trifluoro-2,2-dimethylpropyl)phenyl)-1-ethyl-1H-pyrazole-3-carboxamide]: in assay [1] (setting [8]), the inhibition at […] came to 102%. Further, half-maximal inhibition in assay [1] (setting [4]) (IC50) required 1.3 nM. For the same compound, the Kd in assay [2] (setting [5]) came out at 0.2 nM.

With `CCn1nc(C(=O)NC[C@H]2CC[C@H](S(=O)(=O)CC)CC2)c(Cl)c1-c1ccc(CC(C)(C)C(F)(F)F)cc1OC(F)F` [Example 133, 4-Chloro-5-(2-(difluoromethoxy)-4-(3,3,3-trifluoro-2,2-dimethylpropyl)phenyl)-1-ethyl-N-(((1r,4r)-4-(ethylsulfonyl)cyclohexyl)methyl)-1H-pyrazole-3-carboxamide], the inhibition at […] in assay [1] (setting [8]) amounted to 107%. The same compound returned an IC50 in assay [1] (setting [4]) of 4.6 nM. The Kd in assay [2] (ThermoFluor® Assay, Kd) came out at 0.2 nM.

Regarding `CCn1nc(C(=O)NC[C@H]2CC[C@H](S(C)(=O)=O)CC2)c(Cl)c1-c1c(F)cc(CC(C)C(F)(F)F)cc1F` (some centres unmarked) [Example 197, 4-Chloro-5-(2,6-difluoro-4-(3,3,3-trifluoro-2-methylpropyl)phenyl)-1-ethyl-N-(((1r,4r)-4-(methylsulfonyl)cyclohexyl)methyl)-1H-pyrazole-3-carboxamide], in assay [1] (setting [6]), the inhibition at 0.67 µM was determined as 70%. Further, inhibition in assay [1] (setting [4]) was half-maximal at 21 nM (IC50). In assay [2] (setting [5]), the Kd came to 2 nM.

With `COc1cc(N[C@H](C)C(F)(F)F)ccc1-c1c(Cl)c(C(=O)NC[C@]2(O)CC[C@@H](S(C)(=O)=O)CC2)nn1C(C)(C)C` [Example 27, 1-(tert-Butyl)-4-chloro-N-(((1s,4S)-1-hydroxy-4-(methylsulfonyl)cyclohexyl)methyl)-5-(2-methoxy-4-(((R)-1,1,1-trifluoropropan-2-yl)amino)phenyl)-1H-pyrazole-3-carboxamide], in assay [1] (setting [3]), the inhibition at 6 µM stood at 105%. This compound came in with a half-inhibitory concentration (IC50) in assay [1] (setting [4]) of 60 nM. Besides, in assay [2] (setting [5]), the Kd turned out to be 7.4 nM.

One may read the inhibition as the relative decrease from the control value, in per cent. Broadly, the IC50 is the concentration that gives 50% inhibition. As a reminder, the Kd is the free concentration of one partner at which half of the binding sites on the other are occupied at equilibrium, for simple one-to-one binding.

The record behind these values is patent US10975037B2 (priority 2018, dated 2021).
